According to PMC7395068, “The evolution of strategies to minimise the risk of human drug-induced liver injury (DILI) in drug discovery and development” (Archives of Toxicology, 2020):
Where two headings read alike, the source gives them in different places.

What was measured:
[1] = Plasma free fraction (fu) and unbound Cmax (Cmax,u); assay type: in vitro ADME, human; conditions: unbound plasma Cmax
Description: The prediction of DILI severity was evaluated further using the 3D combined HCI assays using plasma-free fraction. The majority of fu values were obtained from literature, when unavailable in-house prediction was utilised. Unbound plasma Cmax concentrations (Cmax,u) were derived by multiplying total plasma Cmax with the corresponding free fraction (fu) for each compound.

[2] = system: THLE or HepG2 cells, isolated mitochondria, BSEP; conditions: cited from earlier work
[3] = system: HepG2 C3A spheroid, BSEP, Glu/Gal in HepG2 cells, bioactivation; conditions: In vitro Assay; ref Williams 2019; cited from earlier work
[4] = read-out: Human plasma Cmax; total plasma Cmax.tot, median of 9 literature references; cited from earlier work
[5] = plasma free fraction; cited from earlier work
hLiMTs [6] = assay: Combined HCI (HCS) and cellular ATP 3D assay in hLiMTs; conditions: for hLiMTs <25x Avg Cmax ATP / hLiMTs <100x Avg Cmaxu ATP: ATP endpoint; for hLiMTs <25x Avg Cmax ATP / hLiMTs <25x Avg Cmax HCS / hLiMTs <25x Avg Cmax All: cut-off <25x Avg Cmax; for hLiMTs <100x Avg Cmaxu ATP / hLiMTs <100x Avg Cmaxu HCS / hLiMTs <100x Avg Cmaxu All: cut-off <100x Avg Cmaxu; for hLiMTs <25x Avg Cmax HCS / hLiMTs <100x Avg Cmaxu HCS: HCS endpoints; for hLiMTs <25x Avg Cmax All: all endpoints (ATP and HCS); for hLiMTs Cmax max All / hLiMTs Cmax min All / hLiMTs <10 uM All / hLiMTs <100x Avg Cmaxu All: all endpoints; for hLiMTs Cmax max All: Cmax max used; for hLiMTs Cmax min All: Cmax min used; for hLiMTs <10 uM All: cut-off <10 uM
HepaRG spheroids = assay: Combined HCI (HCS) and cellular ATP 3D assay in HepaRG spheroids; conditions: for HepaRG <25x Avg Cmax ATP / HepaRG <100x Avg Cmaxu ATP: ATP endpoint; for HepaRG <25x Avg Cmax ATP / HepaRG <25x Avg Cmax HCS / HepaRG <25x Avg Cmax All: cut-off <25x Avg Cmax; for HepaRG <100x Avg Cmaxu ATP / HepaRG <100x Avg Cmaxu HCS / HepaRG <100x Avg Cmaxu All: cut-off <100x Avg Cmaxu; for HepaRG <25x Avg Cmax HCS / HepaRG <100x Avg Cmaxu HCS: HCS endpoints; for HepaRG <25x Avg Cmax All: all endpoints (ATP and HCS); for HepaRG Cmax max All / HepaRG Cmax min All / HepaRG <10 uM All / HepaRG <100x Avg Cmaxu All: all endpoints; for HepaRG Cmax max All: Cmax max used; for HepaRG Cmax min All: Cmax min used; for HepaRG <10 uM All: cut-off <10 uM; for AC50 / minimal effective concentration: Homo sapiens; for HepaRG <25x Avg Cmax ATP / HepaRG <100x Avg Cmaxu ATP / HepaRG <25x Avg Cmax HCS / HepaRG <100x Avg Cmaxu HCS / HepaRG <25x Avg Cmax All / HepaRG Cmax max All / HepaRG Cmax min All / HepaRG <10 uM All / HepaRG <100x Avg Cmaxu All / AC50 / minimal effective concentration: HepaRG; for DILI prediction HepaRG spheroids (HCS-MEC): Microtissue model structural based (HCI), combined HCS and ATP, MEC < 25 × Cmax.tot cut-off
[7] = cited from earlier work
[8] = system: primary human hepatocytes, NIH3T3 fibroblasts, BSEP, CYP3A4; conditions: cited from earlier work
HepG2 cells = conditions: cited from earlier work
PHH = conditions: cited from earlier work
hLiMTs [9] = conditions: cited from earlier work
[10] = cited from earlier work; remark: listed apart in the source
[11] = system: HepG2 cells, primary human hepatocytes; conditions: In vitro Assay; ref Garside 2014; cited from earlier work
[12] = system: isolated mouse liver mitochondria; conditions: In vitro Assay; ref Porceddu 2012; cited from earlier work
[13] = Modeled in vitro assays (cytotoxicity, mitochondrial dysfunction, BSEP), ref Aleo et al. 2019
[14] = In vitro Assay, ref Schadt 2015
[15] = In vitro Assay, ref Proctor 2017

Compound: N[C@@H](Cc1cc(I)c(Oc2ccc(O)c(I)c2)c(I)c1)C(=O)O [liothyronine]
- Human plasma Cmax,u [1]: 0.00005 µM
- Partition Hybrid HRM Score ([2]; In vitro Assay, ref Aleo 2019): -VE
- Ro2 Hybrid HRM Score ([2]; In vitro Assay, ref Aleo 2019): -VE
- Partition Hybrid HRM Score ≥4, Aleo (2019) [2, 13]: -VE
- Partition Hybrid HRM Score ≥8, Aleo (2019) [2, 13]: -VE
- Rule of Two hybrid HRM Score ≥3, Aleo (2019) [2, 13]: -VE
- Rule of Two hybrid HRM Score ≥8, Aleo (2019) [2, 13]: -VE
- Bayesian Machine Learning [3]: -VE
- Cmax [4]: 0.002 µM
- fu [5]: 0.020
- DILI prediction hLiMTs (HCS-MEC) (hLiMTs [6]; Microtissue model structural based (HCI), combined HCS and ATP, MEC < 25 × Cmax.tot cut-off): -VE
- hLiMTs <25x Avg Cmax ATP (hLiMTs [6]): -ve
- hLiMTs <100x Avg Cmaxu ATP (hLiMTs [6]): -ve
- hLiMTs <25x Avg Cmax HCS (hLiMTs [6]): -ve
- hLiMTs <100x Avg Cmaxu HCS (hLiMTs [6]): -ve
- hLiMTs <25x Avg Cmax All (hLiMTs [6]): -ve
- hLiMTs Cmax max All (hLiMTs [6]): -ve
- hLiMTs Cmax min All (hLiMTs [6]): -ve
- hLiMTs <10 uM All (hLiMTs [6]): -ve
- hLiMTs <100x Avg Cmaxu All (hLiMTs [6]): -ve
- HepaRG <25x Avg Cmax ATP (HepaRG spheroids): -ve
- HepaRG <100x Avg Cmaxu ATP (HepaRG spheroids): -ve
- HepaRG <25x Avg Cmax HCS (HepaRG spheroids): -ve
- HepaRG <100x Avg Cmaxu HCS (HepaRG spheroids): -ve
- HepaRG <25x Avg Cmax All (HepaRG spheroids): -ve
- HepaRG Cmax max All (HepaRG spheroids): -ve
- HepaRG Cmax min All (HepaRG spheroids): -ve
- HepaRG <10 uM All (HepaRG spheroids): +ve (<10 uM)
- HepaRG <100x Avg Cmaxu All (HepaRG spheroids): -ve
- AC50 (HepaRG spheroids; read-out: ATP endpoint AC50): 30.5 µM
- minimal effective concentration (HepaRG spheroids; read-out: ATP endpoint MEC): 11.5 µM
- AC50 (HepaRG spheroids; read-out: HCS endpoint AC50): 82.8 µM
- minimal effective concentration (HepaRG spheroids; read-out: HCS endpoint MEC): 4.14 µM
- DILI prediction HepaRG spheroids (HCS-MEC) (HepaRG spheroids): -VE

Compound: CN(C)C(=N)N=C(N)N [metformin]
- Human plasma Cmax,u [1]: 7.743 µM
- DILI severity category (Chen et al. [2016]) ([7]; LTKB DILIrank category, ref Chen et al. 2016): Less
- DILI severity category (Chen 2016) ([7]; human DILI classification, LTKB DILIrank, ref Chen et al. 2016): Less
- DILI severity category ([7]; human DILI severity, ref Chen et al.): Less
- DILI +VE (5-8), DILI -VE (-4) ([7]; ref Chen 2016): +VE
- DILI severity category ([7]; ref Chen 2016): vLess-DILI-Concern
- DILI in vitro assay prediction, Schadt (2015) ([8]; BSEP & Metabolism based, ref Schadt et al. 2015): -VE
- Cellular toxicity (3T3 cells) [8, 14]: -VE
- Combined Assay [8, 14]: -VE
- GSH adduct HML [8, 14]: -VE
- Hepatocyte cellular toxicity [8, 14]: -VE
- MitoTox 3T3 [8, 14]: -VE
- TDI CYP3A4 [8, 14]: -VE
- hBSEP inhibition [8, 14]: -VE
- Structural based (HCI) (HepG2 cells; In vitro Assay, ref O'Brien 2006): +VE
- DILI in vitro assay prediction, O'Brien (2006) (HepG2 cells; Structural based (HCI), HepG2, ref O'Brien et al. 2006): +VE (lowest HCI endpoint IC50 (or in the absence of dose–response < 100 µM) < 30 × total human plasma exposure levels (Cmax.tot))
- PHH/100xCmax, Proctor (2017) (PHH; 2D PHH, ATP, IC50 < 100 × Cmax.tot, ref Proctor et al. 2017): -VE
- PHH/100uM, Proctor (2017) (PHH; 2D PHH, ATP, IC50 threshold 100 µM, ref Proctor et al. 2017): -VE
- PHH ATP <100uM (PHH; [15]): -VE
- hLiMTs ATP <100uM (hLiMTs [9]; [15]): -VE
- hLiMTs/100xCmax, Proctor (2017) (hLiMTs [9]; hLiMTs, ATP, IC50 < 100 × Cmax.tot, ref Proctor et al. 2017): -VE
- hLiMTs/100uM, Proctor (2017) (hLiMTs [9]; hLiMTs, ATP, IC50 threshold 100 µM, ref Proctor et al. 2017): -VE
- Cmax [4]: 7.82 µM
- fu [5]: 0.990
- Assigned DILI category ([10]; Chen et al. 2016 or literature alignment, ref Chen et al. 2016): 2
- In vivo DILI ([10]; ref Garside 2014): +VE
- In vivo DILI ([10]; ref O'Brien 2006): -VE
- In vivo DILI ([10]; ref Porceddu 2012): +VE
- In vivo DILI ([10]; ref Proctor 2017): +VE
- In vivo DILI ([10]; ref Schadt 2015): -VE
- Cluster 1-6 +VE Assay [11]: +VE
- in vitro data EC2<=1x Cmax [12]: +VE
- in vitro data EC20<=2uM [12]: -VE
- DILI prediction hLiMTs, HCI alone (hLiMTs [6]; HCS endpoints only, 25 × Cmax.tot cut-off): detection
- AC50 (hLiMTs [6]; Homo sapiens, read-out: ATP endpoint AC50): 768 µM
- minimal effective concentration (hLiMTs [6]; Homo sapiens, read-out: ATP endpoint MEC): 503 µM
- minimal effective concentration (hLiMTs [6]; Homo sapiens, read-out: HCS endpoint MEC): 28.1 µM
- DILI prediction hLiMTs, ATP alone (hLiMTs [6]; cellular ATP only, 25 × Cmax.tot cut-off): unpredicted
- hLiMTs <25x Avg Cmax ATP (hLiMTs [6]): -ve
- hLiMTs <100x Avg Cmaxu ATP (hLiMTs [6]): +ve (<100x Avg Cmaxu)
- hLiMTs <25x Avg Cmax HCS (hLiMTs [6]): +ve
- hLiMTs <100x Avg Cmaxu HCS (hLiMTs [6]): +ve (<100x Avg Cmaxu)
- hLiMTs <25x Avg Cmax All (hLiMTs [6]): +ve
- hLiMTs Cmax max All (hLiMTs [6]): +ve
- hLiMTs Cmax min All (hLiMTs [6]): +ve
- hLiMTs <10 uM All (hLiMTs [6]): -ve
- hLiMTs <100x Avg Cmaxu All (hLiMTs [6]): +ve (<100x Avg Cmaxu)
- HepaRG <25x Avg Cmax ATP (HepaRG spheroids): -ve
- HepaRG <100x Avg Cmaxu ATP (HepaRG spheroids): -ve
- HepaRG <25x Avg Cmax HCS (HepaRG spheroids): -ve
- HepaRG <100x Avg Cmaxu HCS (HepaRG spheroids): -ve
- HepaRG <25x Avg Cmax All (HepaRG spheroids): -ve
- HepaRG Cmax max All (HepaRG spheroids): -ve
- HepaRG Cmax min All (HepaRG spheroids): -ve
- HepaRG <10 uM All (HepaRG spheroids): -ve
- HepaRG <100x Avg Cmaxu All (HepaRG spheroids): -ve
- DILI prediction HepaRG spheroids (HCS-MEC) (HepaRG spheroids): -VE
